Results: patent US20110306671A1, “AMIDE DERIVATIVES OF ETHACRYNIC ACID” (The Regents of the The University of California, priority 2008, published 2011)

Assays:
Primary CLL cells [1] = test: Cell apoptosis assay (DiOC6/PI flow cytometry) in primary CLL cells; format: cell-based, human; conditions: 3 μM EA with NAC 1 mM or BHA 100 μM, 48 hours
Wnt/β-catenin signaling = test: TOPflash reporter assay in transfected HEK293 cells; format: cell-based, human; conditions: for effect on EA-induced inhibition of Wnt/β-catenin signaling: TOPflash + Dvl, 50 μM EA with 1 mM NAC, 100 μM PDTC or 100 μM BHA, 24 hours
Wnt signaling = test: CellSensor LEF/TCF-bla SW480 cell-based assay (Wnt signaling inhibition); set-up: species or system human; conditions: for IC50: LEF/TCF-bla SW480 cells, 20 hours
Description: To determine the specificity of compounds on Wnt/[…]-catenin pathway inhibition, CellSensor LEF/TCF-bla SW480 cell-based assay (Invitrogen, Carlsbad, Calif.) was used according to the supplier's instructions, but modified for a 96 well format. Cells were plated at 25,000 cells/well in assay medium in 96-well black plates with clear bottom (Corning) the day prior to compound treatment.

Primary CLL cells [2] = test: Cell viability assay (MTT) with primary CLL cells; conditions: for EC50: read-out: CLL Inhibition EC50, CLL survival, MTT, 48 hours
Normal PBMC = test: Cell viability assay (MTT) with normal peripheral blood mononuclear cells; format: cell-based, human; conditions: data not shown
[3] = system: lymphoma and myeloma cells; conditions: Schmidt et al., 2009; cited from earlier work

Compound	IC50 (Wnt signaling) [µM]	EC50 (Primary CLL cells [2]) [µM]	also measured
CC(=O)N[C@@H](CS)C(=O)O [NAC, N-acetyl-L-cysteine]			protection of CLL cells from EA-induced apoptosis (Primary CLL cells [1]): significantly protected; effect on EA-induced inhibition of Wnt/β-catenin signaling (Wnt/β-catenin signaling): significantly prevented
COc1ccc(O)c(C(C)(C)C)c1 [BHA, 3-t-butyl-4-hydroxyanisole]			protection of CLL cells from EA-induced apoptosis (Primary CLL cells [1]): had no effect; effect on EA-induced inhibition of Wnt/β-catenin signaling (Wnt/β-catenin signaling): did not reverse
C=C(CC)C(=O)c1ccc(OCC(=O)Nc2ccc(C(=O)NC(CCC(=O)OCC)C(=O)OCC)cc2)c(Cl)c1Cl (stereo not drawn) [Compound 31]	2.61	2.1	inhibition of Wnt signaling (in words) (Wnt signaling): low micromolar concentrations; decrease of CLL survival (in words) (Primary CLL cells [2]): low micromolar concentrations
C=C(CC)C(=O)c1ccc(OCC(=O)Nc2ccc(C(=O)O)c(O)c2)c(Cl)c1Cl [Compound 22]	> 50	> 25	
C=C(CC)C(=O)c1ccc(OCC(=O)Nc2ccc(C(=O)O)cn2)c(Cl)c1Cl [Compound 21]	> 50	14.9	
C=C(CC)C(=O)c1ccc(OCC(=O)Nc2ccc(C(N)=O)cc2)c(Cl)c1Cl [Compound 4]	4.76	3.7	
C=C(CC)C(=O)c1ccc(OCC(=O)Nc2ccc(C(=O)O)cc2)c(Cl)c1Cl [Compound 6]	5.81	5	
C=C(CC)C(=O)c1ccc(OCC(=O)Nc2ccc(Cc3ccc(N4C(=O)C5C6C=CC(C6)C5C4=O)cc3)cc2)c(Cl)c1Cl (stereo not drawn) [Compound 27]	2.93	1.8	
C=C(CC)C(=O)c1ccc(OCC(=O)NCCc2c[nH]c3ccccc23)c(Cl)c1Cl [Compound 20]	10.7	5.9	
C=C(CC)C(=O)c1ccc(OCC(=O)Nc2ccc(Cl)c(C(=O)O)c2)c(Cl)c1Cl [Compound 9]	> 50	15.9	
C=C(CC)C(=O)c1ccc(OCC(=O)Nc2cc(OC)c(OC)cc2C(=O)O)c(Cl)c1Cl [Compound 11]	> 50	21.9	
C=C(CC)C(=O)c1ccc(OCC(=O)Nc2ccc(C(C)=O)cc2)c(Cl)c1Cl [Compound 28]	5.06	3.9	
C=C(CC)C(=O)c1ccc(OCC(=O)Nc2ccc3[nH]cnc3c2)c(Cl)c1Cl [Compound 29]	3.62	3.2	inhibition of Wnt signaling (in words) (Wnt signaling): low micromolar concentrations; decrease of CLL survival (in words) (Primary CLL cells [2]): low micromolar concentrations
CCCCS(=N)(=O)CCC(N)C(=O)O (stereo not drawn) [BSO, buthionine sulfoximine]			effect on Wnt/β-catenin signaling (Wnt/β-catenin signaling; cell-based system, data not shown): did not inhibit
CCC(C)C(=O)c1ccc(OCC(=O)O)c(Cl)c1Cl (stereo not drawn) [Compound 42]		> 25	inhibition of Wnt signaling (in words) (Wnt signaling): completely abrogated; IC50 (Wnt signaling; Homo sapiens): > 50 µM; decrease of CLL survival (in words) (Primary CLL cells [2]): completely abrogated
C=C(CC)C(=O)c1ccc(OCC(=O)Nc2nc(C(=NOC)C(=O)O)cs2)c(Cl)c1Cl [Compound 30]	> 50	> 25	
C=C(CC)C(=O)c1ccc(OCC(=O)Nc2nc3ccccc3s2)c(Cl)c1Cl [Compound 13]	4.86	1.5	
C=C(CC)C(=O)c1ccc(OC)c(Cl)c1Cl [Compound 43]			toxicity to peripheral blood mononuclear cells (PBMC) (Normal PBMC): highly toxic
Cc1cc(C2CCCCC2)n(O)c(=O)c1 [cic, ciclopiroxolamine]			induction of apoptosis [3]: significant induction of apoptosis
C=C(CC)C(=O)c1ccc(OCC(=O)Nc2ccc(C=CC(=O)OCC)cc2)c(Cl)c1Cl [Compound 38]	3.79	1.7	
C=C(CC)C(=O)c1ccc(OCC(=O)Nc2cc(Cl)ccc2C(=O)O)c(Cl)c1Cl [Compound 10]	9.62	13.8	
C=C(CC)C(=O)c1ccc(OCC(=O)NC(CS)C(=O)OCC)c(Cl)c1Cl (stereo not drawn) [Compound 7]	> 50	4.8	
C=C(CC)C(=O)c1ccc(OCC(=O)Nc2ccc3c(c2)C(=O)NC3=O)c(Cl)c1Cl [Compound 12]	4.88	2.5	
C=C(CC)C(=O)c1ccc(OCC(=O)Nc2ccc3c(c2)C(=O)c2ccccc2C3=O)c(Cl)c1Cl [Compound 32]	2.97	2.1	
C=C(CC)C(=O)c1ccc(OCC(=O)Nc2ccc(C(=O)OC)cc2)c(Cl)c1Cl [Compound 23]	11.4	4.1	
C=C(CC)C(=O)c1ccc(OCC(=O)NCCCN2CCCC2=O)c(Cl)c1Cl [Compound 33]	> 50	13.8	
C=C(CC)C(=O)c1ccc(OCC(=O)NO)c(Cl)c1Cl [Compound 5]	9.89	4.5	
C=C(CC)C(=O)c1ccc(OCC(=O)Nc2ccc(C#N)cc2)c(Cl)c1Cl [Compound 8]	6.84	7.8	
C=C(CC)C(=O)c1ccc(OCC(=O)NC2CCN(CC(=O)OC)CC2)c(Cl)c1Cl [Compound 18]	> 50	10.6	
C=C(CC)C(=O)c1ccc(OCC(=O)Nc2cccc(C(=O)O)c2)c(Cl)c1Cl [Compound 19]	5.85	20.6	
